Measured values from patent publication US8541588B2, “Sulfonamide derivatives” (Pfizer Limited, priority 2009, dated 2013).

Target: T1, Nav1.7 (or SCN9A) channel; HEK cells stably transfected with hSCN9A (Homo sapiens, UniProt Q15858)
T1 construct: expressed in transfected cells
Assay: Nav1.7 block, PatchXpress 7000 automated whole-cell voltage clamp, estimated IC50 (EIC50)
Assay type: cell-based
Settings: estimated IC50, hSCN9A HEK cells, PatchXpress platform

T1 sequence (Q15858 whole entry): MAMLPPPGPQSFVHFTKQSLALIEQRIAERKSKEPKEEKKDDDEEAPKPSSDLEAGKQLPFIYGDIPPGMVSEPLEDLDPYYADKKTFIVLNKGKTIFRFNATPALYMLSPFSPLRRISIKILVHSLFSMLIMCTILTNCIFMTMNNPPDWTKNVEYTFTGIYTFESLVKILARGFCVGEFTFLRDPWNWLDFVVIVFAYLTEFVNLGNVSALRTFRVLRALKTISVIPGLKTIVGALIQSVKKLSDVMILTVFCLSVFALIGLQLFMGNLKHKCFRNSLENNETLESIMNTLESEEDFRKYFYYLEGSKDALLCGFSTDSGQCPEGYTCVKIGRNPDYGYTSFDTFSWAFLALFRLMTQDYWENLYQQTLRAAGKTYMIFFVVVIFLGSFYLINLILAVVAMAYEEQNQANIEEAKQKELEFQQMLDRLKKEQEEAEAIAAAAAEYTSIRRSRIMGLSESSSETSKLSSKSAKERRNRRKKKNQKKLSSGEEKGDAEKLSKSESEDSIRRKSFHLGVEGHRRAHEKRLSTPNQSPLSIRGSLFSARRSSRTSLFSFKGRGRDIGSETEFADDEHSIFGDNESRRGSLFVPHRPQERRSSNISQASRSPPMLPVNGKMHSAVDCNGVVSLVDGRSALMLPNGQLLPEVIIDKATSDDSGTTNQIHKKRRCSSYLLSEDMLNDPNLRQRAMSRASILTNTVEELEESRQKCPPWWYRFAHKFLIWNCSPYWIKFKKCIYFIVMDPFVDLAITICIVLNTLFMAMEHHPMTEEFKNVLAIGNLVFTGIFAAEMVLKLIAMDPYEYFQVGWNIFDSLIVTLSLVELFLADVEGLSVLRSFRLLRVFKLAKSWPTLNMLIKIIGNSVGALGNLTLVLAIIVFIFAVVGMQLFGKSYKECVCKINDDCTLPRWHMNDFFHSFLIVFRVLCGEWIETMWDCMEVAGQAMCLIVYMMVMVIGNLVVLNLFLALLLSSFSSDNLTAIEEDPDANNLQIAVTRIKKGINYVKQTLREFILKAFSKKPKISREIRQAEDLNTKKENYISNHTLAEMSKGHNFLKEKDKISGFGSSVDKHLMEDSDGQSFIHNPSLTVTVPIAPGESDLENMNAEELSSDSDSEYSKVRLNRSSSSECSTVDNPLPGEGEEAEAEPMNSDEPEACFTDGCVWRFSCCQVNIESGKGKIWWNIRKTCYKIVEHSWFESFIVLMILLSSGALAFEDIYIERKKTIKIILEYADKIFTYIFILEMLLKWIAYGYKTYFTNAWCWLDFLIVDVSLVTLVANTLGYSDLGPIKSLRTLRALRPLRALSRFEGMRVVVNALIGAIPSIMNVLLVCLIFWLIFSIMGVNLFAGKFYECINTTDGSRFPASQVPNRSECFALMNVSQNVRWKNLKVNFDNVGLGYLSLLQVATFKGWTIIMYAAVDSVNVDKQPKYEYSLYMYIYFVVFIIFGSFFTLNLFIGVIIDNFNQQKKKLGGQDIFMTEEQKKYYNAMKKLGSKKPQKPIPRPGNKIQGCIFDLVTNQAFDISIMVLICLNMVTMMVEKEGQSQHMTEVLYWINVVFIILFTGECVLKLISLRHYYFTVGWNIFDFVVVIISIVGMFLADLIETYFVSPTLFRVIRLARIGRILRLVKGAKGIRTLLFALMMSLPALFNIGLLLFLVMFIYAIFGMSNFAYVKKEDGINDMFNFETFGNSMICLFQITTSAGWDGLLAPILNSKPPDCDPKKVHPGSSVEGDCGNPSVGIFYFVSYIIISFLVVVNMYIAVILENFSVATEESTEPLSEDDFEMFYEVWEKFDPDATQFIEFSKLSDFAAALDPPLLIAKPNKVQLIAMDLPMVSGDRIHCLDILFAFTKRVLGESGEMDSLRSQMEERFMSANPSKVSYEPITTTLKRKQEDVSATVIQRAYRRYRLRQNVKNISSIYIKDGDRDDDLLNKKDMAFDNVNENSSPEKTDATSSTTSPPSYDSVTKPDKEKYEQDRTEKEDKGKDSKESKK

IC50 (Examples 815-1040) [nM]	Molecule	IC50 (Examples 283-814) [nM]
12	Cc1cc(S(=O)(=O)Nc2nncs2)c(F)cc1Oc1ccc(OC(F)(F)F)cc1-c1ccnnc1 [Example 1037, 2-fluoro-5-methyl-4-[2-pyridazin-4-yl-4-(trifluoromethoxy)phenoxy]-N-1,3,4-thiadiazol-2-ylbenzenesulfonamide]	
34	Nc1n[nH]cc1-c1cc(Cl)ccc1Oc1cc(F)c(S(=O)(=O)Nc2cccnn2)cc1Cl [Example 1038, 4-[2-(3-amino-1H-pyrazol-4-yl)-4-chlorophenoxy]-5-chloro-2-fluoro-N-pyridazin-3-ylbenzenesulfonamide]	
310	Cn1nccc1-c1cc(Cl)ccc1Oc1ccc(S(=O)(=O)/N=c2\sccn2COP(=O)(O)O)cc1C#N [Example 1039, [(2Z)-2-[({4-[4-Chloro-2-(1-methyl-1H-pyrazol-5-yl)phenoxy]-3-cyanophenyl}sulfonyl)imino]-1,3-thiazol-3(2H)-yl]methyl dihydrogen phosphate]	
	tert-Butyl [(5-chloro-2,4-difluorophenyl)sulfonyl](5-cyano-1,3-thiazol-4-yl)carbamate [Example 516]	10000
